Assay results reported in EPA's ToxRefDB 2.

What was measured:
mouse [1] = details: Combined chronic toxicity/carcinogenicity, b6c3f1, Oral, Feed, dose end: 5 week, group: systemic
rat [2] = details: Combined chronic toxicity/carcinogenicity, fischer, Oral, Feed, dose end: 13 week, group: systemic
mouse [3] = details: Combined chronic toxicity/carcinogenicity, b6c3f1, Oral, Feed, dose end: 104 week, group: systemic
rat [4] = details: Combined chronic toxicity/carcinogenicity, fischer, Oral, Feed, dose end: 119 week, group: systemic
dog [5] = details: Sub-acute repeat dose toxicity, beagle, Oral, Gavage/Intubation, dose end: 14 day, group: systemic
rat [6] = details: Sub-acute repeat dose toxicity; sprague dawley; Oral; Gavage/Intubation; dose end: 14 day; group: systemic; systemic / clinical chemistry / [other] / [other] + systemic / clinical chemistry / 5' nucleotidase / 5' nucleotidase + systemic / clinical …
mouse [7] = details: Combined chronic toxicity/carcinogenicity, other, Oral, Feed, dose end: 104 week, group: systemic
mouse [8] = details: Combined chronic toxicity/carcinogenicity, other, Oral, [Not Specified], dose end: 99 week, group: systemic
rat [9] = details: Prenatal developmental toxicity study, other, Oral, Gavage/Intubation, dose end: 15 GD
rat [10] = details: Combined chronic toxicity/carcinogenicity, wistar, Oral, Feed, dose end: 104 week
dog [11] = details: Chronic toxicity, beagle, Oral, Feed, dose end: 52 week, group: systemic
dog [12] = details: Subchronic oral toxicity in nonrodent, beagle, Feed, dose end: 13 week, group: systemic, systemic / organ weight / lung / relative to body weight + systemic / pathology gross / lung / [other] + systemic / pathology microscopic / …
rat [13] = details: Prenatal developmental toxicity study, sprague dawley, Oral, Gavage/Intubation, dose end: 17 GD
rat [14] = details: Subchronic oral toxicity in rodents, fischer, Feed, dose end: 13 week
rat [15] = details: Combined chronic toxicity/carcinogenicity; fischer; Oral; Feed; dose end: 24 month; group: systemic; systemic / in life observation / body weight / body weight + systemic / in life observation / body weight / body weight gain + systemic / …
mouse [16] = details: Combined chronic toxicity/carcinogenicity; b6c3f1; Oral; Feed; dose end: 104 week; group: systemic; systemic / in life observation / body weight / body weight + systemic / in life observation / body weight / body weight gain + systemic / …
dog [17] = details: Chronic toxicity; beagle; Oral; Feed; dose end: 52 week; group: systemic; systemic / organ weight / adrenal gland / absolute + systemic / organ weight / adrenal gland / relative to body weight + systemic / …
[18] = systemic / organ weight / liver / absolute + systemic / organ weight / liver / relative to body weight + systemic / pathology microscopic / …
[19] = systemic / organ weight / spleen / absolute + systemic / organ weight / spleen / relative to body weight
[20] = systemic / organ weight / kidney / absolute + systemic / organ weight / liver / relative to body weight
[21] = systemic / organ weight / kidney / absolute + systemic / organ weight / liver / relative to body weight + systemic / organ weight / kidney…
[22] = systemic / in life observation / body weight / body weight gain + systemic / organ weight / liver / relative to body weight + systemic / …
[23] = systemic / clinical chemistry / cholesterol / cholesterol + systemic / clinical chemistry / thyroid stimulating hormone (thyrotropin) (tsh…
[24] = systemic / clinical chemistry / thyroid stimulating hormone (thyrotropin) (tsh) / thyroid stimulating hormone (=thyrotropin) (tsh) + …
[25] = systemic / in life observation / body weight / body weight + systemic / in life observation / food consumption / food consumption + systemic…
[26] = systemic / in life observation / food consumption / food consumption + systemic / pathology microscopic / blood / [other] + systemic / …
[27] = group: developmental, developmental / developmental malformation / bone / delayed ossification
[28] = group: developmental, developmental / developmental malformation / bone / delayed ossification + systemic / in life observation / body weight / fetal weight
[29] = group: maternal, systemic / in life observation / body weight / body weight gain + systemic / in life observation / clinical signs / emaciation + systemic / …
[30] = group: cholinesterase, cholinesterase / cholinesterase / cholinesterase / erythrocyte cholinesterase (che)
[31] = group: systemic, systemic / organ weight / kidney / absolute + systemic / organ weight / ovary / absolute
[32] = group: systemic, systemic / organ weight / kidney / absolute + systemic / organ weight / ovary / absolute + systemic / organ weight / brain / relative to …
[33] = systemic / pathology microscopic / lung / [other] + systemic / urinalysis / [other] / urine
[34] = group: maternal, systemic / in life observation / body weight / body weight gain + systemic / in life observation / food consumption / food consumption + …
[35] = group: cholinesterase, cholinesterase / cholinesterase / cholinesterase / plasma cholinesterase (che)
[36] = group: systemic, systemic / organ weight / kidney / relative to body weight + systemic / organ weight / liver / absolute + systemic / organ weight / liver / …

CC(C)=CC1C(C(=O)OCc2cccc(Oc3ccccc3)c2)C1(C)C (centres undefined) [Phenothrin]
LOAEL (mouse [1]; [18]): 565 mg/kg/day
NEL (mouse [1]; [18]): 57 mg/kg/day
NOAEL (mouse [1]; [18]): 190 mg/kg/day
LEL (mouse [1]; systemic / pathology microscopic / liver / necrosis): 190 mg/kg/day
LOAEL (rat [2]; systemic / clinical chemistry / cholesterol / cholesterol + systemic / clinical chemistry / lactic acid dehydrogenase (ldh) / lactic acid …): 216 mg/kg/day
LEL (rat [2]; [19]): 21 mg/kg/day
NEL (rat [2]; [19]): < 21 mg/kg/day
NOAEL (rat [2]; systemic / organ weight / spleen / absolute + systemic / organ weight / spleen / relative to body weight + systemic / clinical chemistry / …): 70 mg/kg/day
LEL (mouse [3]; [20]): 45 mg/kg/day
NEL (mouse [3]; [20]): < 45 mg/kg/day
LOAEL (mouse [3]; [21]): 150 mg/kg/day
NOAEL (mouse [3]; [21]): 45 mg/kg/day
NOAEL (rat [4]; systemic / in life observation / body weight / body weight gain): 50 mg/kg/day
LEL (rat [4]; [22]): 150 mg/kg/day
LOAEL (rat [4]; [22]): 150 mg/kg/day
NEL (rat [4]; systemic / organ weight / liver / relative to body weight): 50 mg/kg/day

Cc1cc(NC(=O)C(=O)O)cc(C)c1Oc1ccc(O)c2c1CCC2
LEL (dog [5]; [23]): 5 mg/kg/day
NEL (dog [5]; [23]): < 5 mg/kg/day
LOAEL (dog [5]; [24]): > 100 mg/kg/day
NOAEL (dog [5]; [24]): ≥ 100 mg/kg/day
LEL (rat [6]): 1 mg/kg/day
LOAEL (rat [6]): > 1000 mg/kg/day
NEL (rat [6]): < 1 mg/kg/day
NOAEL (rat [6]): ≥ 1000 mg/kg/day

C[n+]1ccc(-c2cc[n+](C)cc2)cc1.[Cl-].[Cl-] [Paraquat dichloride]
NOAEL (mouse [7]; systemic / hematology / leukocyte (wbc) count differential / leukocyte (wbc)): 3.82 mg/kg/day
LOAEL (mouse [7]; systemic / hematology / leukocyte (wbc) count differential / leukocyte (wbc) + systemic / hematology / erythrocyte (rbc) count differential…): 13 mg/kg/day
LEL (mouse [7]; systemic / pathology microscopic / mammary gland / [other]): 3.82 mg/kg/day
NEL (mouse [7]; systemic / pathology microscopic / mammary gland / [other] + systemic / clinical chemistry / glucose / glucose + systemic / clinical …): 1.32 mg/kg/day
LOAEL (mouse [8]; [25]): 5.62 mg/kg/day
NOAEL (mouse [8]; [25]): 1.88 mg/kg/day
LEL (mouse [8]; [26]): 1.88 mg/kg/day
NEL (mouse [8]; [26]): < 1.88 mg/kg/day
LOAEL (rat [9]; [27]): 5 mg/kg/day
LEL (rat [9]; [28]): 5 mg/kg/day
NEL (rat [9]; [28]): 1 mg/kg/day
NOAEL (rat [9]; [28]): 1 mg/kg/day
LEL (rat [9]; [29]): 5 mg/kg/day
LOAEL (rat [9]; [29]): 5 mg/kg/day
NEL (rat [9]; [29]): 1 mg/kg/day
NOAEL (rat [9]; [29]): 1 mg/kg/day
LEL (rat [10]; [30]): 15 mg/kg/day
LOAEL (rat [10]; [30]): 15 mg/kg/day
NEL (rat [10]; [30]): 5 mg/kg/day
NOAEL (rat [10]; [30]): 5 mg/kg/day
NEL (rat [10]; [31]): 5 mg/kg/day
NOAEL (rat [10]; [31]): 5 mg/kg/day
LEL (rat [10]; [32]): 15 mg/kg/day
LOAEL (rat [10]; [32]): 15 mg/kg/day
LEL (dog [11]; [33]): 0.45 mg/kg/day
NEL (dog [11]; [33]): < 0.45 mg/kg/day
LOAEL (dog [11]; systemic / pathology microscopic / lung / inflammation): 0.93 mg/kg/day
NOAEL (dog [11]; systemic / pathology microscopic / lung / inflammation + systemic / pathology microscopic / ear / squamous cell papilloma + systemic / in …): 0.45 mg/kg/day
LEL (dog [12]): 1.5 mg/kg/day
LOAEL (dog [12]): 1.5 mg/kg/day
NEL (dog [12]): 0.5 mg/kg/day
NOAEL (dog [12]): 0.5 mg/kg/day

C[C@H]1[C@H](c2ccc(Cl)cc2)SC(=O)N1C(=O)NC1CCCCC1 [Hexythiazox]
LEL (rat [13]; [27]): 720 mg/kg/day
LOAEL (rat [13]; [27]): > 2160 mg/kg/day
NEL (rat [13]; [27]): 240 mg/kg/day
NOAEL (rat [13]; [27]): ≥ 2160 mg/kg/day
LOAEL (rat [13]; group: maternal, systemic / in life observation / body weight / body weight gain + systemic / in life observation / food consumption / food consumption): 720 mg/kg/day
LEL (rat [13]; [34]): 720 mg/kg/day
NEL (rat [13]; [34]): 240 mg/kg/day
NOAEL (rat [13]; [34]): 240 mg/kg/day
LEL (rat [14]; [35]): 50 mg/kg/day
LOAEL (rat [14]; [35]): > 350 mg/kg/day
NEL (rat [14]; [35]): 7 mg/kg/day
NOAEL (rat [14]; [35]): ≥ 350 mg/kg/day
LEL (rat [14]; [36]): 50 mg/kg/day
LOAEL (rat [14]; [36]): 50 mg/kg/day
NEL (rat [14]; [36]): 7 mg/kg/day
NOAEL (rat [14]; [36]): 7 mg/kg/day
LEL (rat [15]): 163 mg/kg/day
LOAEL (rat [15]): 163 mg/kg/day
NEL (rat [15]): 23 mg/kg/day
NOAEL (rat [15]): 23 mg/kg/day
LEL (mouse [16]): 267 mg/kg/day
LOAEL (mouse [16]): 267 mg/kg/day
NEL (mouse [16]): 41.6 mg/kg/day
NOAEL (mouse [16]): 41.6 mg/kg/day
LEL (dog [17]): 13.1 mg/kg/day
LOAEL (dog [17]): 13.1 mg/kg/day
NEL (dog [17]): 2.87 mg/kg/day
NOAEL (dog [17]): 2.87 mg/kg/day
